Source: patent US6737383B1, “Herbicidal oxadiazolidines” (priority 1999, dated 2004)

Key:
[1] = test system: soybean; experiment: Test B pre/postemergence soybean; assay type: in vivo, Glycine max
Method in brief: (§1)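 Response is a visual 0-to-10 score relative to untreated plants, where 0 means no effect and 10 means complete control, taken twelve to sixteen days after application. Treatments went onto soil at planting and onto foliage of 1- to 4-leaf plants, using a surfactant-containing non-phytotoxic solvent.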

[2] = test system: surinam grass; experiment: Test B pre/postemergence surinam grass; assay type: in vivo, Brachiaria decumbens
Method in brief: as §1

[3] = test system: bedstraw; experiment: Test B pre/postemergence bedstraw; assay type: in vivo, Galium aparine
Method in brief: as §1

[4] = test system: duck salad; experiment: Test B flood test duck salad; assay type: in vivo, Heteranthera limosa; settings: Pre-emergence
Method in brief: (§2)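 Each value is a visual injury score relative to controls, with 10 meaning complete control and 0 no effect. Evaluation took place twelve to sixteen days after the 2-leaf-stage plants were treated and kept in the greenhouse.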

[5] = test system: cocklebur; experiment: Test B pre/postemergence cocklebur; assay type: in vivo, Xanthium strumarium
Method in brief: as §1

[6] = test system: bamyardgrass; experiment: Test B flood test barnyardgrass; assay type: in vivo, Echinochloa crus-galli; settings: Pre-emergence
Method in brief: as §2

[7] = test system: blackgrass; experiment: Test B pre/postemergence blackgrass; assay type: in vivo, Alopecurus myosuroides
Method in brief: as §1

[8] = test system: crabgrass; experiment: Test B pre/postemergence crabgrass; assay type: in vivo, Digitaria sanguinalis
Method in brief: as §1

[9] = test system: wheat; experiment: Test B pre/postemergence wheat; assay type: in vivo, Triticum aestivum
Method in brief: as §1

[10] = test system: purple nutsedge; experiment: Test B pre/postemergence purple nutsedge; assay type: in vivo, Cyperus rotundus
Method in brief: as §1

[11] = test system: smallflower flatsedge; experiment: Test B flood test smallflower flatsedge; assay type: in vivo, Cyperus difformis; settings: Pre-emergence
Method in brief: as §2

[12] = test system: corn; experiment: Test B pre/postemergence corn; assay type: in vivo, Zea mays
Method in brief: as §1

[13] = test system: rice; experiment: Test B flood test rice; assay type: in vivo, Oryza sativa; settings: Pre-emergence
Method in brief: as §2

[14] = test system: rape; experiment: Test B pre/postemergence rape; assay type: in vivo, Brassica napus
Method in brief: as §1

[15] = test system: wild oat; experiment: Test B pre/postemergence wild oat; assay type: in vivo, Avena fatua
Method in brief: as §1

[16] = test system: velvetleaf; experiment: Test B pre/postemergence velvetleaf; assay type: in vivo, Abutilon theophrasti
Method in brief: as §1

[17] = test system: sugar beet; experiment: Test B pre/postemergence sugar beet; assay type: in vivo, Beta vulgaris
Method in brief: as §1

[18] = Postemergence, Rate 125 g/ha, scale 0 to 10, 0 is no effect, 10 is complete control
[19] = Preemergence, Rate 62 g/ha, scale of 0 to 10 where 0 is no effect and 10 is complete control
[20] = Preemergence, Rate 250 g/ha, scale of 0 to 10 where 0 is no effect and 10 is complete control
[21] = Preemergence, Rate 500 g/ha, scale of 0 to 10 where 0 is no effect and 10 is complete control
[22] = Rate 62 g/ha, Postemergence, scale 0 to 10, 0 no effect, 10 complete control
[23] = Rate 500 g/ha, Postemergence, scale 0 to 10, 0 no effect, 10 complete control
[24] = Rate 250 g/ha, Postemergence, scale of 0 to 10 where 0 is no effect and 10 is complete control
[25] = Rate 1000 g/ha, scale 0 to 10 (0 no effect, 10 complete control)
[26] = Rate 125 g/ha, flood test species, scale 0 to 10 where 0 is no effect and 10 is complete control
[27] = Rate 250 g/ha, flood-test species, scale 0 to 10, 0 is no effect, 10 is complete control
[28] = Rate 500 g/ha, flood test species, scale 0 to 10 (0 no effect, 10 complete control)

CC(C)N(C(=O)n1oc(=O)n(-c2ccc3ccccc3c2)c1=O)c1ccccc1 [Compound 332]
Plant response rating, Soybean [1, 18]: 2
Soybean plant response rating [1, 19]: 0
Soybean plant response rating (0 to 10 scale) ([1]; Preemergence, Rate 125 g/ha): 0
Soybean plant response rating [1, 20]: 0
Soybean plant response rating [1, 21]: 0
Soybean plant response rating [1, 22]: 2
Plant response rating, Soybean [1, 23]: 3
Plant response rating, B. signalgrass [2, 18]: 0
B. signalgrass plant response rating [2, 19]: 0
B. signalgrass plant response rating (0 to 10 scale, 0 is no effect, 10 is complete control) ([2]; Preemergence, Rate 125 g/ha): 0
B. signalgrass plant response rating [2, 20]: 0
B. signalgrass plant response rating [2, 21]: 0
B. signalgrass plant response rating [2, 22]: 0
Plant response rating, B. signalgrass [2, 24]: 0
Plant response rating, B. signalgrass [2, 23]: 0
Plant response rating, Bedstraw [3, 18]: 0
Bedstraw plant response rating [3, 19]: 0
Bedstraw plant response rating (0 to 10 scale) ([3]; Preemergence, Rate 125 g/ha): 0
Bedstraw plant response rating [3, 20]: 0
Bedstraw plant response rating [3, 22]: 0
Plant response rating, Bedstraw [3, 24]: 0
Ducksalad plant response rating [4, 25]: 0
Ducksalad plant response rating [4, 26]: 0
Ducksalad plant response rating [4, 27]: 0
Ducksalad plant response rating [4, 28]: 0
Plant response rating, Cocklebur [5, 18]: 0
Cocklebur plant response rating [5, 19]: 0
Cocklebur plant response rating (0 to 10 scale) ([5]; Preemergence, Rate 125 g/ha): 0
Cocklebur plant response rating [5, 20]: 0
Cocklebur plant response rating [5, 21]: 0
Cocklebur plant response rating [5, 22]: 0
Plant response rating, Cocklebur [5, 23]: 0
Barnyardgrass plant response rating [6, 25]: 0
Barnyardgrass plant response rating [6, 26]: 0
Barnyardgrass plant response rating [6, 27]: 0
Barnyardgrass plant response rating [6, 28]: 0
Plant response rating, Blackgrass [7, 18]: 0
Blackgrass plant response rating [7, 19]: 0
Blackgrass plant response rating (0 to 10 scale) ([7]; Preemergence, Rate 125 g/ha): 0
Blackgrass plant response rating [7, 20]: 0
Blackgrass plant response rating [7, 21]: 0
Blackgrass plant response rating [7, 22]: 0
Plant response rating, Blackgrass [7, 24]: 0
Plant response rating, Blackgrass [7, 23]: 0
Plant response rating, Crabgrass [8, 18]: 1
Crabgrass plant response rating [8, 19]: 0
Crabgrass plant response rating (0 to 10 scale) ([8]; Preemergence, Rate 125 g/ha): 0
Crabgrass plant response rating [8, 20]: 3
Crabgrass plant response rating [8, 21]: 5
Crabgrass plant response rating [8, 22]: 0
Plant response rating, Crabgrass [8, 23]: 3
Plant response rating, Wheat [9, 18]: 0
Wheat plant response rating [9, 19]: 0
Wheat plant response rating (0 to 10 scale) ([9]; Preemergence, Rate 125 g/ha): 0
Wheat plant response rating [9, 20]: 0
Wheat plant response rating [9, 21]: 0
Wheat plant response rating [9, 22]: 0
Plant response rating, Wheat [9, 23]: 0
Plant response rating, Nutsedge [10, 18]: 0
Nutsedge plant response rating [10, 19]: 0
Nutsedge plant response rating (0 to 10 scale) ([10]; Preemergence, Rate 125 g/ha): 0
Nutsedge plant response rating [10, 20]: 0
Nutsedge plant response rating [10, 21]: 0
Nutsedge plant response rating [10, 22]: 0
Plant response rating, Nutsedge [10, 23]: 0
S. Flatsedge plant response rating [11, 25]: 0
S. Flatsedge plant response rating [11, 26]: 0
S. Flatsedge plant response rating [11, 27]: 0
S. Flatsedge plant response rating [11, 28]: 0
Plant response rating, Corn [12, 18]: 0
Corn plant response rating [12, 19]: 0
Corn plant response rating (0 to 10 scale) ([12]; Preemergence, Rate 125 g/ha): 0
Corn plant response rating [12, 20]: 0
Corn plant response rating [12, 21]: 0
Corn plant response rating [12, 22]: 0
Plant response rating, Corn [12, 23]: 0
Rice plant response rating [13, 25]: 0
Rice plant response rating [13, 26]: 0
Rice plant response rating [13, 27]: 0
Rice plant response rating [13, 28]: 0
Plant response rating, Rape [14, 18]: 0
Rape plant response rating [14, 19]: 0
Rape plant response rating (0 to 10 scale) ([14]; Preemergence, Rate 125 g/ha): 0
Rape plant response rating [14, 20]: 0
Rape plant response rating [14, 21]: 0
Rape plant response rating [14, 22]: 0
Plant response rating, Rape [14, 23]: 0
Plant response rating, Wild oats [15, 18]: 0
Wild oats plant response rating [15, 19]: 0
Wild oats plant response rating (0 to 10 scale) ([15]; Preemergence, Rate 125 g/ha): 0
Wild oats plant response rating [15, 20]: 0
Wild oats plant response rating [15, 21]: 0
Wild oats plant response rating [15, 22]: 0
Plant response rating, Wild oats [15, 23]: 0
Plant response rating, Velvetleaf [16, 18]: 0
Velvetleaf plant response rating [16, 19]: 0
Velvetleaf plant response rating (0 to 10 scale) ([16]; Preemergence, Rate 125 g/ha): 0
Velvetleaf plant response rating [16, 20]: 0
Velvetleaf plant response rating [16, 21]: 0
Velvetleaf plant response rating [16, 22]: 0
Plant response rating, Velvetleaf [16, 23]: 0
Plant response rating, Sugarbeets [17, 18]: 0
Sugarbeets plant response rating [17, 19]: 0
Sugarbeets plant response rating (0 to 10 scale) ([17]; Preemergence, Rate 125 g/ha): 0
Sugarbeets plant response rating [17, 20]: 0
Sugarbeets plant response rating [17, 21]: 0
Sugarbeets plant response rating [17, 22]: 0
Plant response rating, Sugarbeets [17, 23]: 0
